Experimental data: patent US9375443B2 (Signal Pharmaceuticals, LLC, priority 2012, dated 2016)
Where two headings read alike, the source gives them in different places.

Tests used:
Calu-3 = assay: Proliferation Assays (NSCLC cell line sensitivity); assay type: cell-based; details: ACA, KRAS WT, EGFR wt (HER2+)
H1975 = assay: Proliferation Assays (NSCLC cell line sensitivity); assay type: cell-based; details: ACA, KRAS WT, EGFR L858R, T790M
[1] = test system: panel of NSCLC cell lines; assay: Proliferation Assays, panel of NSCLC cell lines; assay type: cell-based; details: various degrees of sensitivity
HCC95 = assay: Proliferation Assays (NSCLC cell line sensitivity); assay type: cell-based; details: SQC, KRAS WT, EGFR WT
H2122 = assay: Proliferation Assays (NSCLC cell line sensitivity); assay type: cell-based; details: KRAS MUT, EGFR WT
A549 = assay: Proliferation Assays (NSCLC cell line sensitivity); assay type: cell-based
H520 = assay: Proliferation Assays (NSCLC cell line sensitivity); assay type: cell-based; details: KRAS WT, EGFR WT
H2009 = assay: Proliferation Assays (NSCLC cell line sensitivity); assay type: cell-based; details: KRAS MUT, EGFR WT
H3255 = assay: Proliferation Assays (NSCLC cell line sensitivity); assay type: cell-based; details: EGFR L858R
NCI-H23 = assay: Proliferation Assays (NSCLC cell line sensitivity); assay type: cell-based
H1650 = assay: Proliferation Assays (NSCLC cell line sensitivity); assay type: cell-based; details: KRAS WT, EGFR E746 A750del (exon19)
HCC15 = assay: Proliferation Assays (NSCLC cell line sensitivity); assay type: cell-based; details: SQC, KRAS WT, EGFR WT
H2126 = assay: Proliferation Assays (NSCLC cell line sensitivity); assay type: cell-based
H1703 = assay: Proliferation Assays (NSCLC cell line sensitivity); assay type: cell-based; details: KRAS WT, EGFR WT
H1299 = assay: Proliferation Assays (NSCLC cell line sensitivity); assay type: cell-based; details: KRAS WT, EGFR WT
H157 = assay: Proliferation Assays (NSCLC cell line sensitivity); assay type: cell-based
H460 = assay: Proliferation Assays (NSCLC cell line sensitivity); assay type: cell-based
H226 = assay: Proliferation Assays (NSCLC cell line sensitivity); assay type: cell-based; details: KRAS WT, EGFR WT
H441 = assay: Proliferation Assays (NSCLC cell line sensitivity); assay type: cell-based; details: BAC, KRAS MUT, EGFR WT
H1975 xenografts = assay: H1975 xenograft in nude mice; assay type: in vivo, athymic nude mice; details: erlotinib 40 mg/kg 3× per week oral gavage, Compound 1 5 mg/kg/daily oral gavage, day 17 to day 30
Source text: (§1) A549 adenocarcinoma or H1975 cells in single cell suspension were implanted into the posterior flanks of athymic nude mice. […] For the A549 xenograft, the treatments were started on Day 26 after implantation and were stopped on day 53, while for the H1975 xenograft, the treatments were started on day 17 after implantation and were stopped on day 30.

A549 xenografts = assay: A549 xenograft in nude mice; assay type: in vivo, athymic nude mice; details: erlotinib 40 mg/kg 3× per week oral gavage, Compound 1 5 mg/kg/daily oral gavage, Day 26 to day 53
Source text: as §1

## CO[C@H]1CC[C@H](N2C(=O)CNc3ncc(-c4ccc(C(C)(C)O)nc4)nc32)CC1 [Compound 1, 7-(6-(2-hydroxypropan-2-yl)pyridin-3-yl)-1-((1r,4r)-4-methoxycyclohexyl)-3,4-dihydropyrazino-[2,3-b]pyrazin-2(1H)-one]
Calu-3
  IC50: 0.184 µM
H1975
  IC50: 0.25 µM
[1]
  anti-proliferative activity: demonstrated anti-proliferative activity
HCC95
  IC50: 0.724 µM
H2122; ACA
  IC50: 1.59 µM
A549; A549, ACA, KRAS MUT G125, EGFR WT, read-out: IC50
  IC50: 0.58 µM
H520; SQC
  IC50: 0.374 µM
H2009; ACA
  IC50: 5.05 µM
H3255; ACA
  IC50: 11.9 µM
NCI-H23; NCI-H23, ACA, KRAS MUT 12 mutation G12C, read-out: IC50
  IC50: 3 µM
H1650; ACA
  IC50: 5.2 µM
HCC15
  IC50: 6.37 µM
H2126; H2126, ACA, KRAS WT, EGFR WT, read-out: IC50
  IC50: 0.214 µM
H1703; SCC
  IC50: 1.64 µM
H1299; Large Cell Neuroendocrin
  IC50: 3.09 µM
H157; H157, SQC, KRAS MUT, EGFR WT
  IC50: 2.61 µM
H460; H460, LCC, KRAS MUT G61H, EGFR WT, read-out: IC50
  IC50: 0.153 µM
H226; SQC
  IC50: 1.98 µM
H441; ACA
  IC50: 0.392 µM

## C#Cc1cccc(Nc2ncnc3cc(OCCOC)c(OCCOC)cc23)c1 [Erlotinib, erlotinib]
Calu-3; Homo sapiens
  IC50: 7.09 µM
[1]
  anti-proliferative activity: demonstrated anti-proliferative activity
HCC95; Homo sapiens
  IC50: 6.45 µM
H1975 xenografts
  tumor growth during treatment: moderately sensitive
H2122; Homo sapiens, NCI-H2122, ACA
  IC50: > 10 µM
A549; Homo sapiens, A549, read-out: IC50 (value in parentheses beside > 10 μM)
  IC50: 25.2 µM
A549; Homo sapiens, A549, ACA, KRAS MUT G125, EGFR WT, read-out: IC50
  IC50: > 10 µM
H520; Homo sapiens, NCI-H520, SQC
  IC50: > 10 µM
H2009; Homo sapiens, NCI-H2009, ACA
  IC50: 15.3 µM
H3255; Homo sapiens, NCI-H3255, ACA
  IC50: 0.205 µM
NCI-H23; Homo sapiens, NCI-H23, read-out: IC50 (value in parentheses beside > 10 μM)
  IC50: 22.8 µM
NCI-H23; Homo sapiens, NCI-H23, ACA, KRAS MUT 12 mutation G12C, read-out: IC50
  IC50: > 10 µM
H1650; Homo sapiens, NCI-H1650, ACA
  IC50: 2.84 µM
HCC15
  IC50: > 10 µM
H2126; Homo sapiens, NCI-H2126, read-out: IC50 (value in parentheses beside > 10 μM)
  IC50: 19.8 µM
H2126; Homo sapiens, NCI-H2126, H2126, ACA, KRAS WT, EGFR WT, read-out: IC50
  IC50: > 10 µM
H1703; Homo sapiens, NCI-H1703, SCC
  IC50: > 10 µM
H1299; Homo sapiens, NCI-H1299, Large Cell Neuroendocrin
  IC50: > 10 µM
H157; Homo sapiens, NCI-H157
  IC50: > 10 µM
H460; Homo sapiens, NCI-H460, read-out: IC50 (value in parentheses beside > 10 μM)
  IC50: 18 µM
H460; Homo sapiens, NCI-H460, H460, LCC, KRAS MUT G61H, EGFR WT, read-out: IC50
  IC50: > 10 µM
H226; Homo sapiens, NCI-H226, SQC
  IC50: > 10 µM
H441; Homo sapiens, NCI-H441, ACA
  IC50: > 10 µM
A549 xenografts
  tumor growth during treatment: resistant
